Assays:
Assay in all cases: Bliss excess, mean over the matrix (fraction); higher = more synergy
[1] = test system: AN3-CA (Endometrial Carcinoma)
Method in brief: (§1)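 Cell lines grown in DMEM/F12 or RPMI with 10% FBS were plated in 1536-well plates and held 24 hours at 37°C, 5% CO2 before 72 hours of exposure to two-drug dose matrices, with DMSO typically at 0.2%. CellTiter-Glo 2.0 luminescence gave viability, which was converted to inhibition. Vehicle wells were set to 0 and blank wells to 1. Combination Emax is the second-highest inhibition in the matrix, and Bliss excess is the observed combination effect minus the expected EA + EB − EA·EB, where EA and EB are the single-agent effects.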

[2] = test system: BALL-1 (B-Lymphoblastic Leukemia)
Method in brief: as §1

[3] = test system: Becker (Low Grade Glioma)
Method in brief: as §1

[4] = test system: CML-T1 (Chronic Myelogenous Leukemia)
Method in brief: as §1

[5] = test system: Calu-6 (Non-Small Cell Lung Carcinoma)
Method in brief: as §1

[6] = test system: Caov-3 (Ovarian Carcinoma)
Method in brief: as §1

[7] = test system: EB-3 (Burkitt's Lymphoma)
Method in brief: as §1

ES-2 (Ovarian Carcinoma) = test system: ES-2 (Ovarian Carcinoma)
Method in brief: as §1

[8] = test system: FLO-1 (Esophageal Adenocarcinoma)
Method in brief: as §1

[9] = test system: KYSE-70 (Esophageal Squamous Cell Carcinoma)
Method in brief: as §1

[10] = test system: LAMA-84 (Chronic Myelogenous Leukemia)
Method in brief: as §1

[11] = test system: LOUCY (T-Lymphoblastic Leukemia)
Method in brief: as §1

[12] = test system: NCI-H1563 (Lung Adenocarcinoma)
Method in brief: as §1

[13] = test system: NCI-H1623 (Lung Adenocarcinoma)
Method in brief: as §1

[14] = test system: NCI-H1755 (Lung Adenocarcinoma)
Method in brief: as §1

[15] = test system: NCI-H196 (Small Cell Lung Carcinoma)
Method in brief: as §1

[16] = test system: NCI-H810 (Non-Small Cell Lung Carcinoma)
Method in brief: as §1

[17] = test system: RERF-LC-KJ (Lung Adenocarcinoma)
Method in brief: as §1

[18] = test system: SJRH30 (Rhabdomyosarcoma)
Method in brief: as §1

[19] = test system: SW684 (Other Solid Carcinomas)
Method in brief: as §1

SMILES	Bliss excess [1]	Bliss excess [2]	Bliss excess [3]	Bliss excess [4]	Bliss excess [5]	Bliss excess [6]	Bliss excess [7]	Bliss excess (ES-2 (Ovarian Carcinoma))	Bliss excess [8]	Bliss excess [9]	Bliss excess [10]	Bliss excess [11]	Bliss excess [12]	Bliss excess [13]	Bliss excess [14]	Bliss excess [15]	Bliss excess [16]	Bliss excess [17]	Bliss excess [18]	Bliss excess [19]
COc1cccc(OCCCN)c1-c1cc(Nc2cnc(C#N)cn2)n[nH]1 [Prexasertib] + C=CCn1c(=O)c2cnc(Nc3ccc(N4CCN(C)CC4)cc3)nc2n1-c1cccc(C(C)(C)O)n1 [AZD1775] (first compound max 1 µM, partner max 1 µM)	0.0766	0.0618	0.0374	0.189	-0.0201	-0.0546	0.0312	0.0006	0.0488	0.0874	0.0731	0.0578	-0.0101	0.0519	-0.0104	-0.0317	0.0869	0.0487	0.108	0.0798
COc1cccc(OCCCN)c1-c1cc(Nc2cnc(C#N)cn2)n[nH]1 [Prexasertib] + CCc1c2c(nc3ccc(O)cc13)-c1cc3c(c(=O)n1C2)COC(=O)[C@]3(O)CC [SN-38] (first compound max 1 µM, 7x7, partner max 0.3 µM)	0.0972	-0.016	-0.0716	0.0077	-0.0116	-0.0539	-0.0404	-0.0222	0.0153	0.0907	-0.0066	0.0103	-0.0111	-0.0364	-0.0057	0.0391	0.0967	0.0513	0.012	0.0036
COc1cccc(OCCCN)c1-c1cc(Nc2cnc(C#N)cn2)n[nH]1 [Prexasertib] + CN(C)CCCOc1ccc(-c2ccc3ncc4c(c3c2)n(C2CCOCC2)c(=O)n4C)cn1 [AZD0156] (first compound max 1 µM, 7x7, partner max 1 µM)	-0.0442	0.0043	-0.0203	-0.0328	-0.0507	-0.0134	0.0498	0.0072	-0.056	-0.0233	-0.0219	0.0036	-0.0416	-0.0206	-0.011	-0.0547	-0.0327	-0.0159	-0.0242	-0.0432
COc1cccc(OCCCN)c1-c1cc(Nc2cnc(C#N)cn2)n[nH]1 [Prexasertib] + C[C@@H]1COCCN1C2=NC(=NC(=C2)C3(CC3)[S@](=N)(=O)C)C4=C5C=CNC5=NC=C4 [AZD6738] (first compound max 1 µM, 7x7, partner max 10 µM)	-0.0308	-0.001	-0.0317	-0.0309	-0.0852	-0.0647	-0.0598	-0.0375	-0.0233	0.0378	-0.0052	-0.0009	-0.0878	-0.0745	-0.0534	-0.049	-0.0519	-0.0002	-0.0192	-0.018
COc1cccc(OCCCN)c1-c1cc(Nc2cnc(C#N)cn2)n[nH]1 [Prexasertib] + Cc1cc2ncnn2cc1Nc1ncc2c(n1)n(C1CCOCC1)c(=O)n2C [AZD7648] (first compound max 1 µM, 7x7, partner max 10 µM)	-0.0393	0.0202	-0.0081	-0.0175	-0.0354	-0.0376	-0.0106	-0.0357	-0.0817	-0.0383	-0.0208	-0.0021	-0.0146	-0.0588	-0.0249	-0.0361	0.0108	0.0558	-0.0311	-0.0408
COc1cccc(OCCCN)c1-c1cc(Nc2cnc(C#N)cn2)n[nH]1 [Prexasertib] + O=C(c1cc(Cc2n[nH]c(=O)c3ccccc23)ccc1F)N1CCN(C(=O)C2CC2)CC1 [Olaparib] (first compound max 1 µM, 7x7, partner max 10 µM)	-0.0523	-0.0145	-0.0257	-0.03	-0.0701	-0.0138	-0.195	-0.102	-0.0721	-0.0248	-0.0307	-0.0422	-0.037	-0.0777	-0.0582	-0.0641	-0.0082	-0.0597	-0.104	-0.0742
COc1cc2c(cc1OCCCCCOc1cc3c(cc1OC)C(=O)N1C=C(C)C[C@H]1C=N3)N=C[C@@H]1CC(C)=CN1C2=O [SG3199] + O=C(c1cc(Cc2n[nH]c(=O)c3ccccc23)ccc1F)N1CCN(C(=O)C2CC2)CC1 [Olaparib] (first compound max 0.001 µM, 7x7, partner max 10 µM)	-0.0292	0.0476	-0.0361	-0.006	-0.013	-0.0475	-0.0509	-0.045	-0.0486	-0.0227	-0.0015	-0.039	-0.0428	-0.0342	-0.0207	-0.0387	-0.0368	-0.0235	0.0009	-0.056
CCc1c2c(nc3ccc(O)cc13)-c1cc3c(c(=O)n1C2)COC(=O)[C@]3(O)CC [SN-38] + CN(C)CCCOc1ccc(-c2ccc3ncc4c(c3c2)n(C2CCOCC2)c(=O)n4C)cn1 [AZD0156] (first compound max 0.3 µM, 7x7, partner max 1 µM)	-0.0446	0.0492	0.0387	0.0241	0.0491	0.0175	-0.0659	0.0144	0.0218	0.0487	0.08	0.0406	-0.0605	-0.0496	0.0829	-0.049	-0.0022	-0.083	0.0722	-0.0457
CC(=O)Nc1cccc(-n2c(=O)n(C3CC3)c(=O)c3c(Nc4ccc(I)cc4F)n(C)c(=O)c(C)c32)c1 [Trametinib] + Cc1nc(-c2cn3c(n2)-c2ccc(-c4cnn(C(C)(C)C(N)=O)c4)cc2OCC3)n(C(C)C)n1 [Taselisib] (first compound max 1 µM, 7x7, partner max 10 µM)	0.0575	0.142	0.121	0.0426	0.168	0.0289	0.0489	0.0915	0.047	0.182	0.0537	0.0668	0.103	0.144	0.115	0.0039	-0.052	0.0564	0.076	0.161
CC1(C)CCC(CN2CCN(c3ccc(C(=O)NS(=O)(=O)c4ccc(NCC5CCOCC5)c([N+](=O)[O-])c4)c(Oc4cnc5[nH]ccc5c4)c3)CC2)=C(c2ccc(Cl)cc2)C1 [Venetoclax] + C1CN(CCC1(C(=O)N[C@@H](CCO)C2=CC=C(C=C2)Cl)N)C3=NC=NC4=C3C=CN4 [Capivasertib] (first compound max 1 µM, 7x7, partner max 3 µM)	0.0482	0.0213	0.0046	-0.0342	-0.0558	-0.0458	-0.0683	-0.0389	-0.0841	-0.0102	-0.0498	0.104	-0.0411	-0.0643	-0.034	-0.0377	-0.0663	-0.0808	-0.0008	-0.0688
CC1(C)CCC(CN2CCN(c3ccc(C(=O)NS(=O)(=O)c4ccc(NCC5CCOCC5)c([N+](=O)[O-])c4)c(Oc4cnc5[nH]ccc5c4)c3)CC2)=C(c2ccc(Cl)cc2)C1 [Venetoclax] + C=CCn1c(=O)c2cnc(Nc3ccc(N4CCN(C)CC4)cc3)nc2n1-c1cccc(C(C)(C)O)n1 [AZD1775] (first compound max 1 µM, partner max 1 µM)	-0.0253	0.0171	0.0593	0.0106	-0.0317	0.0265	-0.0193	-0.0297	0.0161	-0.0169	0.0884	0.0193	0.0451	-0.0218	0.054	-0.0007	-0.0873	-0.0394	-0.045	0.032
CC1(C)CCC(CN2CCN(c3ccc(C(=O)NS(=O)(=O)c4ccc(NCC5CCOCC5)c([N+](=O)[O-])c4)c(Oc4cnc5[nH]ccc5c4)c3)CC2)=C(c2ccc(Cl)cc2)C1 [Venetoclax] + CCN(CCO)CCCOc1ccc2c(Nc3cc(CC(=O)Nc4cccc(F)c4)[nH]n3)ncnc2c1 [AZD2811] (first compound max 1 µM, 7x7, partner max 1 µM)	0.0345	0.0632	0.0074	0.104	0.0331	-0.0544	0.0036	-0.0388	-0.019	0.0245	-0.0036	-0.0278	0.0151	-0.0165	-0.0135	-0.0463	-0.034	-0.0222	0.0544	-0.0043

Source: the supplement of paper PMC11061612
